In PMC5218472 (PLoS Biology, 2017):
Residues, ends and D or L forms follow the SMILES beside them. *: point of attachment. NH(β-GlcNAc) = CC(=O)N[C@@H]1[C@@H](O)[C@H](O)[C@@H](CO)O[C@H]1N*; αGalNAc = CC(=O)N[C@@H]1[C@@H](O)[C@@H](O)[C@@H](CO)O[C@@H]1*

Legend:
ADAM17 = test system: T1, ADAM17; assay: In vitro cleavage assay of IL-6R (glyco)peptides with recombinant ADAM17; details: human, isolated enzyme, pH 9
T1 construct: catalytic domain (aa Pro-18 to Val-477) of ADAM17; purchased Enzo Life Sciences GmbH (Lörrach, Germany)
Procedure: Fig 7 The N- and O-glycosylated sequon adjacent to the cleavage site is of minor importance for IL-6R cleavage. (A) Amino-acid sequence of the two unglycosylated peptides 1(QD) and 2(QA). Peptides were incubated either with or without recombinant ADAM17 for 16 h at 37°C, and the amount of cleaved peptide was analyzed by reversed-phase (RP) chromatography. (B) Amino-acid sequence of the two glycopeptides 3(QD) and 4(QA), which have a GlcNAc attached to the amino-acid residue corresponding to Asn-350 of the IL-6R. Cleavage was determined as described in panel (A). (C) Amino-acid sequence of the two glycopeptides 5(QD) and 6(QA), which have a biantennary N-glycan attached to the amino-acid residue corresponding to Asn-350 of the IL-6R. Cleavage was determined as described in panel (A). (D) Amino-acid sequence of the two glycopeptides 7(QD) and 8(QA), which have a GalNAc attached to the amino-acid residue corresponding toThr-352 of the IL-6R. Cleavage was determined as described in panel (A). (E) Amino-acid sequence of the two glycopeptides 9(QD) and 10(QA), which have a biantennary N-glycan attached to the amino-acid residue corresponding to Asn-350 and a GalNAc attached to the amino-acid residue corresponding toThr-352 of the IL-6R. Cleavage was determined as described in panel (A). All data shown are the mean ± SD from three independent experiments (*p < 0.05, **p < 0.01, ***p < 0.001, compared to the untreated peptide; ^§p < 0.05, compared to the cleaved nonglycosylated peptide).
Two 1.5 ml reaction tubes were filled with 50 μl peptide (50 μM) solved in 25 mM Hepes (pH 9.0), and 0.5 μl of the recombinant catalytic domain of ADAM17 was added to one of the reaction tubes, whereas the other sample remained untreated. All samples were incubated for 16 h at 37°C. Afterwards, 1,150 μl 0.1% TFA was added to each sample, and the peptides were separated on a reverse phase chromatography column (Multo High Bio-200-C18) from Chromatographie Service (Langerwehe, Germany) using a linear gradient elution with a binary solvent system and a flow rate of 1 ml/min. Solvent A consisted of 0.1% TFA, and solvent B consisted of 100% ACN. After peak integration, peak areas for cleaved and noncleaved peptides were determined.

[1] = in vitro peptide cleavage, 16 h, RP chromatography; details: glycan gained; control: unglycosylated synthetic peptide 2(QA), Asp358Ala

Row | Molecule | remaining at 16 h, 50 μM (ADAM17) [%] | other: proteolytic processing, other: percent peptide intact [1]
1 | CC[C@H](C)[C@H](NC(=O)[C@@H](N)CC(N)=O)C(=O)N[C@@H](CC(C)C)C(=O)N[C@@H](Cc1ccccc1)C(=O)N[C@@H](CCCNC(=N)N)C(=O)N[C@@H](CC(=O)O)C(=O)N[C@@H](CO)C(=O)N[C@@H](C)C(=O)N[C@@H](CC(=O)N[C@@H]1O[C@H](CO)[C@@H](O)[C@H](O)[C@H]1NC(C)=O)C(=O)N[C@@H](C)C(=O)N[C@H](C(=O)N[C@@H](CO)C(=O)N[C@@H](CC(C)C)C(=O)N1CCC[C@H]1C(=O)N[C@H](C(=O)N[C@@H](CCC(N)=O)C(=O)N[C@@H](CC(=O)O)C(=O)N[C@@H](CO)C(=O)N[C@@H](CO)C(=O)N[C@@H](CO)C(=O)N[C@H](C(=O)N1CCC[C@H]1C(=O)N[C@@H](CC(C)C)C(=O)N1CCC[C@H]1C(=O)O)C(C)C)C(C)C)[C@@H](C)O [3(QD)] (H-NILFRDSAD(NH(β-GlcNAc))ATSLPVQDSSSVPLP-OH) | 91.4 | –
2 | IL-6R / sIL-6R (interleukin-6 receptor): peptide 10(QA), biantennary N-glycan plus GalNAc (protein) parent chain: MLAVGCALLAALLAAPGAALAPRRCPAQEVARGVLTSLPGDSVTLTCPGVEPEDNATVHWVLRKPAAGSHPSRWAGMGRRLLLRSVQLHDSGNYSCYRAGRPAGTVHLLVDVPPEEPQLSCFRKSPLSNVVCEWGPRSTPSLTTKAVLLVRKFQNSPAEDFQEPCQYSQESQKFSCQLAVPEGDSSFYIVSMCVASSVGSKFSKTQTFQGCGILQPDPPANITVTAVARNPRWLSVTWQDPHSWNSSFYRLRFELRYRAERSKTFTTWMVKDLQHHCVIHDAWSGLRHVVQLRAQEEFGQGEWSEWSPEAMGTPWTESRSPPAENEVSTPMQALTTNKDDDNILFRDSANATSLPVQASSSVPLPTFLVAGGSLAFGTLLCIAIVLRFKKTWKLRALKEGKTSMHPPYSLGQLVPERPRPTPVLVPLISPPVSPSSLGSDNTSSHNRPDARDPRSPYDISNTDYFFPR | – | decreases, 14.7% ± 6.3% vs 1.0% ± 1.0%

More lines, main results first:

Row | remaining at 16 h, 50 μM (ADAM17) [%] | Molecule | other: proteolytic processing, other: percent peptide intact [1]
3 | 0.4 | CC[C@H](C)[C@H](NC(=O)[C@@H](N)CC(N)=O)C(=O)N[C@@H](CC(C)C)C(=O)N[C@@H](Cc1ccccc1)C(=O)N[C@@H](CCCNC(=N)N)C(=O)N[C@@H](CC(=O)O)C(=O)N[C@@H](CO)C(=O)N[C@@H](C)C(=O)N[C@@H](CC(=O)N[C@@H]1O[C@H](CO)[C@@H](O)[C@H](O)[C@H]1NC(C)=O)C(=O)N[C@@H](C)C(=O)N[C@H](C(=O)N[C@@H](CO)C(=O)N[C@@H](CC(C)C)C(=O)N1CCC[C@H]1C(=O)N[C@H](C(=O)N[C@@H](CCC(N)=O)C(=O)N[C@@H](C)C(=O)N[C@@H](CO)C(=O)N[C@@H](CO)C(=O)N[C@@H](CO)C(=O)N[C@H](C(=O)N1CCC[C@H]1C(=O)N[C@@H](CC(C)C)C(=O)N1CCC[C@H]1C(=O)O)C(C)C)C(C)C)[C@@H](C)O [4(QA)] (H-NILFRDSAD(NH(β-GlcNAc))ATSLPVQASSSVPLP-OH) | –
4 | 91 | CC[C@H](C)[C@H](NC(=O)[C@@H](N)CC(N)=O)C(=O)N[C@@H](CC(C)C)C(=O)N[C@@H](Cc1ccccc1)C(=O)N[C@@H](CCCNC(=N)N)C(=O)N[C@@H](CC(=O)O)C(=O)N[C@@H](CO)C(=O)N[C@@H](C)C(=O)N[C@@H](CC(N)=O)C(=O)N[C@@H](C)C(=O)N[C@H](C(=O)N[C@@H](CO)C(=O)N[C@@H](CC(C)C)C(=O)N1CCC[C@H]1C(=O)N[C@H](C(=O)N[C@@H](CCC(N)=O)C(=O)N[C@@H](CC(=O)O)C(=O)N[C@@H](CO)C(=O)N[C@@H](CO)C(=O)N[C@@H](CO)C(=O)N[C@H](C(=O)N1CCC[C@H]1C(=O)N[C@@H](CC(C)C)C(=O)N1CCC[C@H]1C(=O)O)C(C)C)C(C)C)[C@@H](C)O[C@H]1O[C@H](CO)[C@H](O)[C@H](O)[C@H]1NC(C)=O [7(QD)] (H-NILFRDSANAT(αGalNAc)SLPVQDSSSVPLP-OH) | –
